Results from US20250388593A1 (MITSUBISHI TANABE PHARMA CORPORATION, priority 2023, published 2025).

Assay: Stability against racemization (chiral HPLC)
Type: physicochemical
Experimental: Test Example 7: Stability Against Racemization Each test sample (1 mg) was dissolved in CH3CN (1 mL), and 0.1 M N-methylmorpholine aqueous solution (adjusted to pH 7.4 with 1N HCl) (1 mL) was added to dilute the solution twofold, thereby preparing a solution with a final concentration of 0.5 mg/mL. The sample was divided into nine portions of 150 μL each, and each portion was placed in a sampler set to 37° C. The enantiomers in the sample were quantified at 0, 1, 3, 6, 24, 48, 72, and 167 hours under the following HPLC conditions, and the enantiomeric excess (ee) at each time point was calculated.
As test samples, Example Compound 211-1 was used as an example, while (S)-thalidomide represented by the following formula
• Equipment: ACQUITY UPLC H-Class Waters • Column: […] IE-3 (3 μm, 4.6×150 mm) Daicel Corporation • Flow rate: 0.5 mL/min • Column temperature: 25° C.
• Mobile phase: 100% MeOH • Injection volume: 0.7 μL • Detection wavelength: 217.0 nm
• Mobile phase: 100% MeOH • Injection volume: 1.2 μL • Detection wavelength: 221.0 nm
• Mobile phase: EtOH/CH3CN=90/10 • Injection volume: 1.5 μL • Detection wavelength: 221.0 nm

[1] = 0 h, pH 7.4, 37° C., CH3CN/0.1 M N-methylmorpholine aqueous solution

| ee Normalized to 100 at 0 min (0 h, pH 7.4, 37° C.) | ee [1] | ee (24 h, pH 7.4, 37° C.) | ee Normalized to 100 at 0 min (24 h, pH 7.4, 37° C.) | ee (48 h, pH 7.4, 37° C.) | ee Normalized to 100 at 0 min (48 h, pH 7.4, 37° C.) | ee (72 h, pH 7.4, 37° C.) | ee Normalized to 100 at 0 min (72 h, pH 7.4, 37° C.) | ee (167 h, pH 7.4, 37° C.) | ee Normalized to 100 at 0 min (167 h, pH 7.4, 37° C.) | ee (Initial) | Compound |
| --- | --- | --- | --- | --- | --- | --- | --- | --- | --- | --- | --- |
| 100 | 92.11 | 73.31 | 79.59 | 58.25 | 63.24 | 46.27 | 50.23 | 18.57 | 20.16 | 92.16 | O=C1CC[C@H](N2C(=O)c3ccccc3C2=O)C(=O)N1 [(S) Thalidomide, (S)-thalidomide] |
| 100 | 99.43 | 87.71 | 88.21 | 77.71 | 78.16 | 70.06 | 70.46 | 41.83 | 42.07 | 99.44 | Cn1c(=O)n([C@@H]2CCCC(=O)NC2=O)c2cccc(I)c21 (stereo in doubt) [Example 211-1, 3-(4-Iodo-3-methyl-2-oxobenzimidazol-1-yl) azepane-2,7-dione] |
| 100 | 96.08 | 77.77 | 80.94 | 62.84 | 65.4 | 50.69 | 52.76 | 21.53 | 22.41 | 95.39 | Cn1c(=O)n([C@@H]2CCC(=O)NC2=O)c2cccc(I)c21 [Compound A′] |
